Data published in patent US9765037B2, “Compositions and methods for treating toxoplasmosis, cryptosporidiosis, and other apicomplexan protozoan related diseases” (University of Washington Through its Center for …, priority 2010, dated 2017).
pIC50: −log10 of the molar value. Like-named read-outs stand apart in the source and are kept apart here.

Tests used:
CpCDPK1 = CpCDPK1 (Cryptosporidium parvum (strain Iowa II), UniProt A3FQ16); assay: biochemical; assay type: biochemical; details: for IC50: read-out: IC50 (μM) CpCDPK1; for pIC50: read-out: CpCDPK1 IC50
TgCDPK1 = TgCDPK1 (Toxoplasma gondii, UniProt Q9BJF5); assay type: biochemical; details: read-out: IC50 (μM) TgCDPK1
TgCDPK1, sequence (Q9BJF5 1-507): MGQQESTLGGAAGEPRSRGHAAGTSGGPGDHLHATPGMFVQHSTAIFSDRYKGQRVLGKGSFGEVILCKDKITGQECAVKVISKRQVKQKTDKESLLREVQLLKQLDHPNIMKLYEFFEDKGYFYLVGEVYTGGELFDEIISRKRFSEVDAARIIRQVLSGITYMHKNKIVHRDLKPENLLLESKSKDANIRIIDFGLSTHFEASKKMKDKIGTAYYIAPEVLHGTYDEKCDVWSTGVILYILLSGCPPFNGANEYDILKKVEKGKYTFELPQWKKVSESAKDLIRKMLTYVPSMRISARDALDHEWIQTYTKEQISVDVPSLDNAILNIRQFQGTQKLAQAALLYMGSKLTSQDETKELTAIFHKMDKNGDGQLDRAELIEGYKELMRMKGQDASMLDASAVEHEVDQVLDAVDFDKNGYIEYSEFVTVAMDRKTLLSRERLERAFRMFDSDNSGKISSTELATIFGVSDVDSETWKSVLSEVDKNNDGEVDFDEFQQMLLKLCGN

CpCDPK1, sequence (A3FQ16 1-538): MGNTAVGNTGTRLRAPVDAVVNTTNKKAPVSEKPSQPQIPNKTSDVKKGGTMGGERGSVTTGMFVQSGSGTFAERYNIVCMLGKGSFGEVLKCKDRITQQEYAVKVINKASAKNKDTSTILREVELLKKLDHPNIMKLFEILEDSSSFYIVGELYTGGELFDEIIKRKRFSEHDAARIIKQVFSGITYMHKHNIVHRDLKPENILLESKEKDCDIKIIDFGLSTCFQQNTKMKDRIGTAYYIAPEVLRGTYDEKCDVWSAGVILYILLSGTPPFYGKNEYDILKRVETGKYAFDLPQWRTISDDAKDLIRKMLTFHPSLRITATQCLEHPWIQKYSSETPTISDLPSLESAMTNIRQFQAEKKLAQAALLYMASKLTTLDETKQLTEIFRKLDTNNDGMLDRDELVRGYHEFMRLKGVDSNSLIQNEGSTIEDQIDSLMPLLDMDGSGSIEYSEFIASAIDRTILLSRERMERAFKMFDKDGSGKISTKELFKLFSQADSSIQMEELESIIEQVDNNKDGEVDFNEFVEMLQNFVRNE

Compound	IC50 (CpCDPK1; Table 8)	IC50 (TgCDPK1)	pIC50 (CpCDPK1)	IC50 (CpCDPK1)
CC(C)n1nc(-c2ccnc(Cl)c2)c2c(N)ncnc21 [Compound 19, 3-(2-chloropyridin-4-yl)-1-isopropyl-1H-pyrazolo[3,4-d]pyrimidin-4-amine]	0.37 µM	0.0638 µM	–	–
CC(C)n1nc(-c2cccc3ccccc23)c2c(N)ncnc21 [Compound 7o, 1-isopropyl-3-(naphthalen-1-yl)-1H-pyrazolo[3,4-d]pyrimidin-4-amine]	–	0.326 µM	6.21	–
CS(=O)(=O)N1CCC(CCn2nc(Cc3cccc4ccccc34)c3c(N)ncnc32)CC1 [Compound 5r, 1-(2-(1-(methylsulfonyl)piperidin-4-yl)ethyl)-3-(naphthalen-1-ylmethyl)-1H-pyrazolo[3,4-d]pyrimidin-4-amine]	0.194 µM	0.117 µM	6.70	–
CS(=O)(=O)N1CCC(Cn2nc(Cc3cccc4ccccc34)c3c(N)ncnc32)CC1 [Compound 5q, 1-((1-(methylsulfonyl)piperidin-4-yl)methyl)-3-(naphthalen-1-ylmethyl)-1H-pyrazolo[3,4-d]pyrimidin-4-amine]	0.691 µM	0.563 µM	6.15	–
CC(C)n1nc(-c2cccc(OCc3ccccc3Cl)c2)c2c(N)ncnc21 [Compound 21, 3-(3-(2-chlorobenzyloxy)phenyl)-1-isopropyl-1H-pyrazolo[3,4-d]pyrimidin-4-amine]	> 3 µM	> 3 µM	–	–
Cc1cc(-c2nn(C(C)C)c3ncnc(N)c23)ccc1F [Compound 7i, 3-(4-fluoro-3-methylphenyl)-1-isopropyl-1H-pyrazolo[3,4-d]pyrimidin-4-amine]	–	0.009 µM	–	0.053 µM
CC(C)n1nc(-c2cccc(Cl)c2)c2c(N)ncnc21 [Compound 7b, 3-(3-chlorophenyl)-1-isopropyl-1H-pyrazolo[3,4-d]pyrimidin-4-amine]	0.115 µM	0.02 µM	6.92	–
NC(=O)Cn1nc(Cc2cccc3ccccc23)c2c(N)ncnc21 [Compound 5c, 2-(4-amino-3-(naphthalen-1-ylmethyl)-1H-pyrazolo[3,4-d]pyrimidin-1-yl)acetamide]	2.04 µM	1.92 µM	5.70	–
CC(=O)N1CCC(n2nc(Cc3cccc4ccccc34)c3c(N)ncnc32)CC1 [Compound 5j, 1-(4-(4-amino-3-(naphthalen-1-ylmethyl)-1H-pyrazolo[3,4-d]pyrimidin-1-yl)piperidin-1-yl)ethanone]	0.103 µM	0.091 µM	7.00	–
Cc1ccc(-c2nn(C(C)C)c3ncnc(N)c23)cc1 [Compound 7f, 1-isopropyl-3-p-tolyl-1H-pyrazolo[3,4-d]pyrimidin-4-amine]	–	0.013 µM	–	0.087 µM
CC(C)n1nc(-c2cccnc2)c2c(N)ncnc21 [Compound 16, 1-isopropyl-3-(pyridin-3-yl)-1H-pyrazolo[3,4-d]pyrimidin-4-amine]	> 3 µM	0.961 µM	–	–
CC(C)n1nc(Cc2ccc3ccccc3c2)c2c(N)ncnc21 [Compound 14, 1-isopropyl-3-(naphthalen-2-ylmethyl)-1H-pyrazolo[3,4-d]pyrimidin-4-amine]	0.953 µM	0.627 µM	–	–
CC(C)c1ccc(-c2nn(C(C)C)c3ncnc(N)c23)cc1 [Compound 7d, 1-isopropyl-3-(4-isopropylphenyl)-1H-pyrazolo[3,4-d]pyrimidin-4-amine]	0.213 µM	0.048 µM	6.68	–
COc1ccc(-c2nn(C(C)C)c3ncnc(N)c23)cc1OC(C)C [Compound 23, 3-(3-isopropoxy-4-methoxyphenyl)-1-isopropyl-1H-pyrazolo[3,4-d]pyrimidin-4-amine]	> 3 µM	> 3 µM	–	–
Cn1nc(Cc2cccc3ccccc23)c2c(N)ncnc21 [Compound 5a, 1-methyl-3-(naphthalen-1-ylmethyl)-1H-pyrazolo[3,4-d]pyrimidin-4-amine]	–	0.458 µM	–	0.413 µM
CC(C)n1nc(-c2cncnc2)c2c(N)ncnc21 [Compound 18, 1-isopropyl-3-(pyrimidin-5-yl)-1H-pyrazolo[3,4-d]pyrimidin-4-amine]	> 3 µM	> 3 µM	–	–
COc1cc(COc2cccc(-c3nn(C(C)C)c4ncnc(N)c34)c2)cc(OC)c1 [Compound 22, 3-(3-(3,5-dimethoxybenzyloxy)phenyl)-1-isopropyl-1H-pyrazolo[3,4-d]pyrimidin-4-amine]	> 3 µM	1.14 µM	–	–
Nc1ncnc2c1c(Cc1cccc3ccccc13)nn2C1CCCC1 [Compound 13, 1-cyclopentyl-3-(naphthalen-1-ylmethyl)-1H-pyrazolo[3,4-d]pyrimidin-4-amine]	0.894 µM	0.553 µM	–	–
